System: moderate-to-severe chronic spontaneous urticaria (CSU)
Assay: Phase 2 CSU study: urticaria activity score over 7 days (UAS7)
Assay type: in vivo, human
Conditions: ITT, 400 mg BID
Description: The study comprises a 12 week, randomized, double-blind, placebo-controlled, multi-center, dose-ranging efficacy and safety phase, followed by a 40 week open label extension (OLE) phase (see FIG. 1). The study consists of three phases and an optional OLE phase. […] Clinically, CSU is characterized by the spontaneous and recurrent appearance of pruritic hives. The proposed primary endpoints were the UAS7 at Week 12 in EU and EU reference countries and the ISS7 in the US. Regardless of where a participant was from, all assessments were the same. The UAS7 score is a composite score containing both the HSS7 and the ISS7. This allowed a global assessment of the two key components of urticaria: hives and itch. […] The UAS is a validated PRO measure. […] The daily UAS scores range from 0 to 6 point/day. […] Patients were to complete the UAS using the e-diary. […] The following secondary endpoints were to be analyzed using the same approach as for the primary endpoint: • Change from baseline in UAS7 at Week 4 • Change from baseline in UAS7 at Week 12 (for US and US reference countries) • Change from baseline in ISS7 at Week 12 (except US and US reference countries) • Change from baseline in HSS7 at Week 12 The following responder secondary endpoints were to be analyzed using the Cochran-Mantel-Haenszel test adjusted by region: • Proportion of participants with UAS7<6 at Week 12 • Proportion of participants with UAS7=0 at Week 12 Participants who received selected prohibited medications and/or rescue medications were to be considered as non-responders for time points after the medication usage. For other participants, all available data including those collected during the off-treatment period were to be used to determine the responder/non-responder status. Missing data were to be considered as non-responders.

## CC(C)(C=C(C#N)C(=O)N1CCC[C@@H](n2nc(-c3ccc(Oc4ccccc4)cc3F)c3c(N)ncnc32)C1)N1CCN(C2COC2)CC1 [rilzabrutinib, (R)-2-[3-[4-amino-3-(2-fluoro-4-phenoxy-phenyl)pyrazolo[3,4-d]pyrimidin-1-yl]piperidine-1-carbonyl]-4-methyl-4-[4-(oxetan-3-yl)piperazin-1-yl]pent-2-enenitrile]
Week 4
  OR for rilzabrutinib vs. placebo, UAS7 ≤6: 2.948
  RRD (%) for rilzabrutinib vs. placebo, UAS7 = 0: 1.3 %
  RRD (%) for rilzabrutinib vs. placebo, UAS7 ≤6: 16.7 %
  Responder n (%), UAS7 = 0: 3 (7.3) n (%)
  Responder n (%), UAS7 ≤6: 13 (31.7) n (%)
Week 5
  Imputed non-responder n (%), UAS7 = 0: 5 (12.2) n (%)
  Imputed non-responder n (%), UAS7 ≤6: 5 (12.2) n (%)
  Non-responder n (%), UAS7 = 0: 35 (85.4) n (%)
  Non-responder n (%), UAS7 ≤6: 28 (68.3) n (%)
  OR for rilzabrutinib vs. placebo, UAS7 = 0: 6.024
  OR for rilzabrutinib vs. placebo, UAS7 ≤6: 8.203
  RRD (%) for rilzabrutinib vs. placebo, UAS7 ≤6: 24.3 %
  Responder n (%), UAS7 = 0: 6 (14.6) n (%)
  Responder n (%), UAS7 ≤6: 13 (31.7) n (%)
Week 6
  Imputed non-responder n (%), UAS7 = 0: 4 (9.8) n (%)
  Imputed non-responder n (%), UAS7 ≤6: 4 (9.8) n (%)
  Non-responder n (%), UAS7 = 0: 36 (87.8) n (%)
  Non-responder n (%), UAS7 ≤6: 29 (70.7) n (%)
  OR for rilzabrutinib vs. placebo, UAS7 = 0: 4.821
  OR for rilzabrutinib vs. placebo, UAS7 ≤6: 2.329
  RRD (%) for rilzabrutinib vs. placebo, UAS7 = 0: 8.4 %
  RRD (%) for rilzabrutinib vs. placebo, UAS7 ≤6: 13.6 %
  Responder n (%), UAS7 = 0: 5 (12.2) n (%)
  Responder n (%), UAS7 ≤6: 12 (29.3) n (%)
Week 7
  Imputed non-responder n (%), UAS7 = 0: 4 (9.8) n (%)
  Imputed non-responder n (%), UAS7 ≤6: 4 (9.8) n (%)
  Non-responder n (%), UAS7 = 0: 35 (85.4) n (%)
  Non-responder n (%), UAS7 ≤6: 29 (70.7) n (%)
  OR for rilzabrutinib vs. placebo, UAS7 = 0: 6.024
  OR for rilzabrutinib vs. placebo, UAS7 ≤6: 3.425
  RRD (%) for rilzabrutinib vs. placebo, UAS7 ≤6: 17.8 %
  Responder n (%), UAS7 = 0: 6 (14.6) n (%)
  Responder n (%), UAS7 ≤6: 12 (29.3) n (%)
Week 8
  Imputed non-responder n (%), UAS7 = 0: 5 (12.2) n (%)
  Imputed non-responder n (%), UAS7 ≤6: 5 (12.2) n (%)
  Non-responder n (%), UAS7 = 0: 33 (80.5) n (%)
  Non-responder n (%), UAS7 ≤6: 25 (61.0) n (%)
  OR for rilzabrutinib vs. placebo, UAS7 = 0: 4.083
  OR for rilzabrutinib vs. placebo, UAS7 ≤6: 3.297
  RRD (%) for rilzabrutinib vs. placebo, UAS7 = 0: 13.4 %
  RRD (%) for rilzabrutinib vs. placebo, UAS7 ≤6: 21.8 %
  Responder n (%), UAS7 = 0: 8 (19.5) n (%)
  Responder n (%), UAS7 ≤6: 16 (39.0) n (%)
Week 9
  Imputed non-responder n (%), UAS7 = 0: 9 (22.0) n (%)
  Imputed non-responder n (%), UAS7 ≤6: 9 (22.0) n (%)
  Non-responder n (%), UAS7 = 0: 33 (80.5) n (%)
  Non-responder n (%), UAS7 ≤6: 28 (68.3) n (%)
  OR for rilzabrutinib vs. placebo, UAS7 = 0: 2.914
  OR for rilzabrutinib vs. placebo, UAS7 ≤6: 3.540
  RRD (%) for rilzabrutinib vs. placebo, UAS7 = 0: 11.3 %
  RRD (%) for rilzabrutinib vs. placebo, UAS7 ≤6: 19.4 %
  Responder n (%), UAS7 = 0: 8 (19.5) n (%)
  Responder n (%), UAS7 ≤6: 13 (31.7) n (%)
Week 10
  Imputed non-responder n (%), UAS7 = 0: 10 (24.4) n (%)
  Imputed non-responder n (%), UAS7 ≤6: 10 (24.4) n (%)
  Non-responder n (%), UAS7 = 0: 32 (78.0) n (%)
  Non-responder n (%), UAS7 ≤6: 29 (70.7) n (%)
  OR for rilzabrutinib vs. placebo, UAS7 = 0: 2.322
  OR for rilzabrutinib vs. placebo, UAS7 ≤6: 1.699
  RRD (%) for rilzabrutinib vs. placebo, UAS7 = 0: 10.9 %
  RRD (%) for rilzabrutinib vs. placebo, UAS7 ≤6: 8.6 %
  Responder n (%), UAS7 = 0: 9 (22.0) n (%)
  Responder n (%), UAS7 ≤6: 12 (29.3) n (%)
Week 11
  Imputed non-responder n (%), UAS7 = 0: 9 (22.0) n (%)
  Imputed non-responder n (%), UAS7 ≤6: 9 (22.0) n (%)
  Non-responder n (%), UAS7 = 0: 35 (85.4) n (%)

— patent publication US20260256792A1, “TREATMENT OF CHRONIC SPONTANEOUS URTICARIA BY ADMINISTERING (R)-2-[3-[4-AMINO-3-(2-FLUORO-4-PHENOXY-PHENYL)PYRAZOLO[3,4-D]PYRIMIDIN-1-YL]PIPERIDINE-1-CARBONYL]-4-METHYL-4-[4-(OXETAN-3-YL)PIPERAZIN-1-YL]PENT-2-ENENITRILE” (priority 2023, published 2026)
